Source: patent publication US5760241A, “Thiol derivatives with metallopeptidase inhibitory activity” (priority 1996, dated 1998)

How the values were obtained:
ACE (SHR lungs) = experiment: Ex vivo ACE-inhibitory activity in lungs of treated SHR; design: species or system spontaneously hypertensive rats (SHR)
Description: (§1) The ex vivo ACE/NEP-inhibitory activity of the compounds of formula I, in particular, was evaluated by considering the enzymatic activity in tissue homogenates (lung and kidney for the ACE- and NEP-inhibitory activity, respectively) from spontaneously hypertensive rats (SHR), treated with the tested compounds by intravenous or oral route.
b) ACE-inhibitory activity
The ex vivo ACE-inhibitory activity was evaluated by using a radiometric assay method, as reported in the literature by J. W. Ryan et al. in Biochem. J. (1977), 167, 501-504.
The inhibitory activity of the compounds of formula I was evaluated in lungs of spontaneously hypertensive rats (SHR), 5 minutes after i.v. injection (0.6, 0.64 and 21 μmoles/kg) and 30 minutes, 60 minutes and 4 hours after oral administration (30 μmoles/kg) of the tested compounds.
After the removal of the lungs from SHR, the lung tissue was homogenized and incubated for 2 hours at 37° C. in the presence of [^3 H]Hyp-Gly-Gly, as a substrate.
The reaction was stopped by adding hydrochloric acid.
The released radiolabelled hyppuric acid was extracted with ethyl acetate and counted by liquid scintillation spectrometry, according to conventional methods.
The ACE-inhibitory activity of the tested compounds was expressed as percentage of ACE-inhibition in SHR lungs.
(§2) As an example, the percentages of basal enzymatic activity obtained in the ex vivo tests after the administration of compounds 29 and 41, as representative compounds of formula I, and of the comparison compounds R-1, R-2, R-3 and R-4 are reported in the following table 2.

NEP (SHR kidneys) = experiment: Ex vivo NEP-inhibitory activity in kidneys of treated SHR; design: species or system spontaneously hypertensive rats (SHR)
Description: as §1
a) NEP-inhibitory activity
The ex vivo NEP-inhibitory activity was evaluated according to the procedure reported in the literature by M. Orlowsky et al., in Biochemistry 1981, 20, 4942-4950.
The inhibitory activity of the compounds of formula I was evaluated in kidneys of spontaneously hypertensive rats (SHR), 5 minutes after i.v. injection (0.6, 0.64 and 21 μmoles/kg) and 30 minutes, 60 minutes and 4 hours after oral administration (30 μmoles/kg) of the tested compounds.
After the removal of the kidneys from SHR, the renal tissue was homogenized and incubated for 15 minutes at 37° C. in the presence of Glutaryl-Ala-Ala-Phe-2-naphthylamide (GAAP), as a substrate, and aminopeptidase M at pH 7.6.
The reaction was stopped by adding an aqueous solution at 10% of trichloroacetic acid.
The released 2-naphthylamine was determined by adding fast garnet dye (2 ml).
Enzyme reaction rates were determined by measuring the increase in the optical density at 524 nm (OD524) with respect to a standard obtained with 2-naphthylamine complexed with fast garnet.
The NEP-inhibitory activity of the tested compounds was expressed as percentage of NEP-inhibition in SHR kidneys.
as §2

SMILES	ACE-inhibition (lungs), 30 minutes (ACE (SHR lungs); oral 30 μmoles/kg) [%]	ACE-inhibition (lungs), 4 hours (ACE (SHR lungs); oral 30 μmoles/kg) [%]	NEP-inhibition (kidneys), 30 minutes (NEP (SHR kidneys); oral 30 μmoles/kg)	NEP-inhibition (kidneys), 4 hours (NEP (SHR kidneys); oral 30 μmoles/kg)	ACE-inhibition (lungs), 5 minutes (ACE (SHR lungs); i.v. 0.6 μmoles/kg) [%]	ACE-inhibition (lungs), 5 minutes (ACE (SHR lungs); i.v. 21 μmoles/kg) [%]	ACE-inhibition (lungs), 60 minutes (ACE (SHR lungs); oral 30 μmoles/kg, 60 minutes) [%]	NEP-inhibition (kidneys), 5 minutes (NEP (SHR kidneys); i.v. 0.6 μmoles/kg) [%]	NEP-inhibition (kidneys), 5 minutes (NEP (SHR kidneys); i.v. 21 μmoles/kg) [%]	NEP-inhibition (kidneys), 60 minutes (NEP (SHR kidneys); oral 30 μmoles/kg, 60 minutes) [%]
O=C(N[C@@H](Cc1ccccc1)C(=O)O)C(CS)Cc1ccc2c(c1)OCO2 (stereo partly drawn) [R-1, N-[3-mercapto-2-(3,4-methylenedioxyphenyl)methyl-propionyl]-(S)-phenylalanine]	25	20	5%	not active						
O=C(N[C@@H](Cc1ccc(O)cc1)C(=O)O)C(CS)Cc1ccc2c(c1)OCO2 (stereo partly drawn) [R-2, N-[3-mercapto-2-(3,4-methylenedioxyphenyl)methyl-propionyl]-(S)-tyrosine]	30	25	30%	not active						
CC(CS)C(=O)N[C@@H](Cc1ccc(O)cc1)C(=O)O (stereo partly drawn) [R-3, N-(3-mercapto-2-methylpropanoyl)-L-tyrosine]	25	20	10%	5%						
CC(CS)C(=O)N[C@@H](Cc1c[nH]c2ccccc12)C(=O)O (stereo partly drawn) [R-4, N-(3-mercapto-2-methylpropanoyl)-L-triptophan]	25	10	not active	not active						
O=C(N[C@@H](Cc1ccc(-c2nccs2)cc1)C(=O)O)[C@@H](CS)Cc1ccccc1 [compound 29, N-[(2S)-3-mercapto-2-phenylmethylpropionyl]-4-(2-thiazolyl)-L-phenylalanine]	60	45	55%	40%	15	72	36	34	49	39
